Entries after “also recorded” stand apart in the source; their conditions may differ.
Columns and labels:
Type in all cases: cell-based, C57Bl/6 mice
[1] = system: small intestine-derived organoids; test: Expression of cell proliferation marker Ki-67 by immunofluorescence; conditions: 1 μM SAG culture medium; 0, 24 and 48 hours after completion of culture; vs control group; FIG. 3
Description: (§1) Specifically, the organoids were fixed with 4% PFA, and 0.1% Triton X-100 in PBS was used to increase a permeability of the organoids. Subsequently, 3% BSA and 0.1% Triton X-100 were placed in a solution diluted in PBS for 1 hour to block a membrane of the organoids, and incubated with primary antibodies (anti-hTERT (ab32020, abcam), anti-Ki67 (ab16667, abcam), anti-Green Fluorescent Protein (GFP-1020, aveslabs), anti-Dclk1 (ab31704, abcam), anti-UEA 1 (RL-1062-2, Vector Laboratories)) at 4° C. for 1 day. After washing with PBS three times for 10 minutes at room temperature, incubation was performed with fluorescent secondary antibodies corresponding to each primary antibody for 2 hours. After washing gain with PBS three times for 10 minutes at room temperature, the organoid nuclei were stained with 4′, 6-diamidino-2-phenylindole, dihydrochloride (DAPI) for 5 minutes at room temperature. In order to confirm the radiation resistance of reserve stem cell-derived organoids prepared in Example 1, the formation of small intestinal crypts and the expression of a cell proliferation marker Ki-67 were confirmed after radiation expose. Specifically, 3 μM CHIR99021 and 1 mM Valproic acid were added to advanced DMEM F/12 medium supplemented with HEPES, glutamax, N-acetylcysteine, N2, B-27, R-spodin, noggin, and EGF. […]

[2] = system: small intestine-derived organoids; test: Immunofluorescence of reserve stem cell marker TERT in SAG-treated organoids; conditions: 1 μM SAG after 3 μM CHIR99021 + 1 mM valproic acid; over time after incubation; FIG. 1
Description: To prepare small intestine-derived organoids, small intestine tissue was isolated from 4 to 8 week-old C57Bl/6 mice and perfused with PBS. The tissue was cut into pieces of 2 to 4 mm in size, placed in PBS, and washed clearly about 10 times. Then, the tissue was placed in PBS containing 200 mM EDTA, and incubated at 4° C. for 1 hour with shaking. Thereafter, the cells detached from the tissue were passed through a 70 um cell strainer, and centrifuged at 200 g. Organoids were prepared by mixing Matrigel in a 1:1 volume ratio with a culture medium containing settled small intestinal crypts and then performing three-dimensional culture.
The medium was prepared by adding a 10 mM HEPES buffer, 1X glutamax, 1 mM N-acetylcysteine, 1 volume of N2, 2 volumes of B-27, 20 volumes of RSPO (R-spodin), 10 volumes of noggin per 100 volumes of total medium, and 50 ng/ml of EGF to advanced DMEM F/12 medium (Gibco™, Cat. No 12634010) as a basic medium for small intestine organoids.
Subsequently, 10 μM Y-27632 was added to the medium, and the organoids prepared in Example 1-1 were inoculated and cultured for 3 days. […]

[3] = system: small intestine-derived organoids; test: Radiation resistance: formation of small intestinal crypts after X-ray irradiation; conditions: FIG. 2
Description: In order to confirm the radiation resistance of reserve stem cell-derived organoids prepared in Example 1, the formation of small intestinal crypts and the expression of a cell proliferation marker Ki-67 were confirmed after radiation expose. Specifically, 3 μM CHIR99021 and 1 mM Valproic acid were added to advanced DMEM F/12 medium supplemented with HEPES, glutamax, N-acetylcysteine, N2, B-27, R-spodin, noggin, and EGF. Thereafter, the organoids prepared in Example 1-1 were inoculated and cultured for 6 days, and then cultured for 3 days each under the conditions shown in the table below. [table] Then, the organoids cultured under each culture condition were irradiated once with 6 Gy of X-ray using a radiation irradiator (rs-320), and the formation of small intestinal crypts was confirmed after 72 hours.

[4] = system: small intestinal organoids; test: Differentiation potential: Dclk1 (tuft cells) and UEA-1 (goblet cells) immunofluorescence; conditions: culture medium comprising SAG vs control group not comprising SAG; FIG. 4
Description: Subsequently, 10 μM Y-27632 was added to the medium, and the organoids prepared in Example 1-1 were inoculated and cultured for 3 days. Then, 3 μM CHIR99021 (Sigma-Aldrich, Cat. No SML1046-5 MG) and 1 mM valproic acid (Sigma-Aldrich, Cat. No P4543-10G) were added and incubated for 4 days at 37° C. in a 5% CO2 incubator, followed by treatment with 1 μM SAG (Abcam, Cat. No ab142160) and incubation to culture the reserve stem cell-induced organoids.
as §1, with “temperature.” for “temperature. In order to confirm the radiation resistance of reserve stem cell-derived organoids prepared in Example 1, the formation of small intestinal crypts and the expression of a cell proliferation marker Ki-67 were confirmed after radiation expose. Specifically, 3 μM CHIR99021 and 1 mM Valproic acid were added to advanced DMEM F/12 medium supplemented with HEPES, glutamax, N-acetylcysteine, N2, B-27, R-spodin, noggin, and EGF.”

CNC1CCC(N(Cc2cccc(-c3ccncc3)c2)C(=O)c2sc3ccccc3c2Cl)CC1 (stereo not drawn) [SAG, smoothened receptor agonist (SAG)]
expression of cell proliferation marker Ki-67 [1]: expressed at a significantly higher level than a control group at each time point | activity of TERT (reserve stem cell marker) [2]: significantly increased over time | formation of small intestinal crypts ([3]; 1 μM SAG + 3 μM CHIR99021 + 1 mM valproic acid, 3 days, 6 Gy X-ray once, after 72 hours, vs control groups 1 and 2): significantly better formation of small intestinal crypts compared to the other control groups | radiation resistance ([3]; 1 μM SAG, 6 Gy X-ray, vs control groups): had resistance to radiation; also recorded: significantly higher radiation resistance than the other control groups | Dclk1 (tuft cells) marker [4]: significantly increased compared to the control group | UEA-1 (goblet cells) marker [4]: significantly increased compared to the control group

Reference: patent US20260035668A1, “ORGANOID CULTURE COMPOSITION FOR INDUCING RESERVE STEM CELLS AND CULTURE METHOD USING SAME” (KOREA UNIVERSITY RESEARCH AND BUSINESS FOUNDATION, priority 2022, published 2026)
